The values that follow are results of earlier work, collected in article PMC6138493 (British Journal of Clinical Pharmacology, 2018).

For the data set the following is noted: after intravenous administration; ref Onasch et al. 24.

For `NCCc1ccc(O)c(O)c1` [DA, dopamine], the “Elimination half‐life of DA in plasma” value was “a few minutes”.
